Results as given in patent US9957265B2, “N-(2-cyano heterocyclyl) pyrazolo pyridones as janus kinase inhibitors” (Merck Sharp & Dohme Corp., priority 2013, dated 2018).
Like-named read-outs stand apart in the source and are kept apart here.

Tests used:
JAK1 = JAK1 (Homo sapiens (Human), UniProt P23458); experiment: Jak Biochemical HTRF Assay (JAK1); settings: recombinant GST-tagged catalytic domain, [ATP] 31.8 μM, unit not given (compound concentrations tested given in nM)
Excerpt: Jak Biochemical HTRF Assay Protocol
Subsequent reagent additions employed an Agilent Bravo.

JAK2 = JAK2 (Homo sapiens (Human), UniProt O60674); experiment: Jak Biochemical HTRF Assay (JAK2)
JAK2, sequence (O60674 849-1124): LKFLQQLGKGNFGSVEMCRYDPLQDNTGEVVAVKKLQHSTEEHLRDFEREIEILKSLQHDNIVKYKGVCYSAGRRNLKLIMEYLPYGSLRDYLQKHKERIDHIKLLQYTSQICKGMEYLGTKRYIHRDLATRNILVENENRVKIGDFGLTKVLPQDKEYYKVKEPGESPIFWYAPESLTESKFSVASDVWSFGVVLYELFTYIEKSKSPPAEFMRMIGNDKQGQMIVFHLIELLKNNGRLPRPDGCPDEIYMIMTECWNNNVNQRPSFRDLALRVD

[1] = read-out: JAK2 IC50, recombinant GST-tagged catalytic domain, [ATP] 8.5 μM, unit not given (compound concentrations tested given in nM)
[2] = JAK2 IC50, recombinant GST-tagged catalytic domain, [ATP] 8.5 μM, unit not given (compound concentrations tested given in nM)

JAK1, sequence (P23458 875-1153): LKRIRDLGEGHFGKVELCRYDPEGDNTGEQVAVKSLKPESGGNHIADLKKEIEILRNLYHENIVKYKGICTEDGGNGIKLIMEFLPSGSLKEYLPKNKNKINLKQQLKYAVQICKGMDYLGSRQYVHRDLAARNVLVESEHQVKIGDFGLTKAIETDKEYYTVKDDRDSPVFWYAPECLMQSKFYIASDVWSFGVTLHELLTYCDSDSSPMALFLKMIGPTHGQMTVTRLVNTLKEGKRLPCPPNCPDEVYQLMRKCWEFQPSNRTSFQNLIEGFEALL

Row | IC50 (JAK1) [nM] | IC50 (JAK2; [1]) [nM] | IC50 (JAK2; [2]) [nM] | SMILES
1 | 1.64 | 7.44 | – | CS(=O)(=O)c1cc(Nc2nn(C3COCC[C@@H]3C#N)c3cc[nH]c(=O)c23)ccc1Cl (stereo partly drawn) [Example 3-1, (3R,4S)-3-(3-((4-chloro-3-(methylsulfonyl)phenyl)amino)-4-oxo-4,5-dihydro-1H-pyrazolo[4,3-t]pyridin-1-yl)tetrahydro-2H-pyran-4-carbonitrile]
2 | 0.09 | – | 0.13 | N#C[C@H]1CCOC[C@@H]1n1nc(Nc2ccc(C(N3CCNCC3)C(F)(F)F)cc2)c2c(=O)[nH]ccc21 (single isomer, unassigned) [Example 1-38, (3R,4S)-3-[4-oxo-3-({4-[(1R or 1S)-2,2,2-trifluoro-1-piperazin-1-ylethyl]phenyl}amino)-4,5-dihydro-1H-pyrazolo[4,3-c]pyridin-1-yl]tetrahydro-2H-pyran-4-carbonitrile]
3 | 0.21 | – | 0.24 | N#C[C@H]1CCOC[C@@H]1n1nc(Nc2ccc(C(N3CCSCC3)C(F)(F)F)cc2)c2c(=O)[nH]ccc21 (single isomer, unassigned) [Example 2-6, (3R,4S)-3-[4-oxo-3-({4-[(1R or 1S)-2,2,2-trifluoro-1-thiomorpholin-4-ylethyl]phenyl}amino)-4,5-dihydro-1H-pyrazolo[4,3-c]pyridin-1-yl]tetrahydro-2H-pyran-4-carbonitrile]
4 | 0.12 | – | 0.18 | CC(c1ccc(Nc2nn([C@H]3COCC[C@@H]3C#N)c3cc[nH]c(=O)c23)cc1)n1nccn1 (single isomer, unassigned) [Example 1-44, (3R,4S)-3-[4-oxo-3-({4-[(1S or 1R)-1-(2H-1,2,3-triazol-2-yl)ethyl]phenyl}amino)-4,5-dihydro-1H-pyrazolo[4,3-c]pyridin-1-yl]tetrahydro-2H-pyran-4-carbonitrile]
5 | 7.06 | 11.5 | – | CS(=O)(=O)c1ccc(Nc2nn([C@@H]3COCC[C@H]3C#N)c3cc[nH]c(=O)c23)cc1 [Example 1-1, (3S,4R)-3-(3-((4-(methylsulfonyl)phenyl)amino)-4-oxo-4,5-dihydro-1H-pyrazolo[4,3-c]pyridin-1-yl)tetrahydro-2H-pyran-4-carbonitrile]
6 | 0.89 | – | 13.7 | C[S+]([O-])c1cc(Nc2nn([C@H]3COCC[C@@H]3C#N)c3cc[nH]c(=O)c23)ccc1F (single isomer, unassigned) [Example 3-2, (3R,4S)-3-(3-((4-fluoro-3-((S or R)-methylsulfinyl)phenyl)amino)-4-oxo-4,5-dihydro-1H-pyrazolo[4,3-c]pyridin-1-yl)tetrahydro-2H-pyran-4-carbonitrile]
7 | 0.7 | 1.92 | – | CN(C)S(=O)(=O)c1ccc(Nc2nn([C@H]3COCC[C@@H]3C#N)c3cc[nH]c(=O)c23)cn1 [Example 1-67, 5-({1-[(3R,4S)-4-cyanotetrahydro-2H-pyran-3-yl]-4-oxo-4,5-dihydro-1H-pyrazolo[4,3-c]pyridin-3-yl}amino)-N,N-dimethylpyridine-2-sulfonamide]
8 | 0.14 | – | 0.21 | CC(c1ccc(Nc2nn([C@H]3COCC[C@@H]3C#N)c3cc[nH]c(=O)c23)cc1)n1nccn1 (single isomer, unassigned) [Example 1-45, (3R,4S)-3-[4-oxo-3-({4-[(1R or 1S)-1-(2H-1,2,3-triazol-2-yl)ethyl]phenyl}amino)-4,5-dihydro-1H-pyrazolo[4,3-c]pyridin-1-yl]tetrahydro-2H-pyran-4-carbonitrile]
9 | 0.05 | – | 0.06 | N#C[C@H]1CCOC[C@@H]1n1nc(Nc2ccc(C3(C(F)(F)F)CCCCN3)cc2)c2c(=O)[nH]ccc21 (single isomer, unassigned) [Example 2-7, (3R,4S)-3-[4-oxo-3-({4-[(2S or 2R)-2-(trifluoromethyl)piperidin-2-yl]phenyl}amino)-4,5-dihydro-1H-pyrazolo[4,3-c]pyridin-1-yl] tetrahydro-2H-pyran-4-carbonitrile]
10 | 0.14 | – | 0.6 | CC(C)(C)OC(=O)CNC(c1ccc(Nc2nn([C@H]3COCC[C@@H]3C#N)c3cc[nH]c(=O)c23)cc1)C(F)(F)F (single isomer, unassigned) [Example 1-41, tert-butyl N-{(1S or 1R)-1-[4-({1-[(3R,4S)-4-cyanotetrahydro-2H-pyran-3-yl]-4-oxo-4,5-dihydro-1H-pyrazolo[4,3-c]pyridin-3-yl}amino)phenyl]-2,2,2-trifluoroethyl}glycinate]
11 | 0.06 | – | 0.22 | N#C[C@H]1CCOC[C@@H]1n1nc(Nc2ccc(C(N)C(F)(F)F)cc2)c2c(=O)[nH]ccc21 (single isomer, unassigned) [Example 1-8, (3R,4S)-3-(3-((4-((R or S)-1-amino-2,2,2-trifluoroethyl)phenyl)amino)-4-oxo-4,5-dihydro-1H-pyrazolo[4,3-c]pyridin-1-yl)tetrahydro-2H-pyran-4-carbonitrile]
12 | 0.08 | – | 0.15 | N#C[C@H]1CCOCC1n1nc(Nc2ccc(C(O)(c3ccncc3)C(F)(F)F)cc2)c2c(=O)[nH]ccc21 (single isomer, unassigned) [Example 1-94, (3R,4S)-3-(4-oxo-3-((4-((S or R)-2,2,2-trifluoro-1-hydroxy-1-(pyridin-4-yl)ethyl)phenyl)amino)-4,5-dihydro-1H-pyrazolo[4,3-c]pyridin-1-yl)tetrahydro-2H-pyran-4-carbonitrile]
13 | 0.18 | – | 0.3 | CC1(C)CC1NC(c1ccc(Nc2nn([C@H]3COCC[C@@H]3C#N)c3cc[nH]c(=O)c23)cc1)C(F)(F)F (single isomer, unassigned) [Example 1-49, (3R,4S)-3-{3-[(4S or 4R-{1S or 1R-[(2,2-dimethylcyclopropyl)amino]-2,2,2-trifluoroethyl}phenyl)amino]-4-oxo-4,5-dihydro-1H-pyrazolo[4,3-c]pyridin-1-yl}tetrahydro-2H-pyran-4-carbonitrile]
14 | 0.14 | – | 0.18 | N#C[C@H]1CCOCC1n1nc(Nc2ccc(C(O)(c3ccccn3)C(F)(F)F)cc2)c2c(=O)[nH]ccc21 (single isomer, unassigned) [Example 1-97, (3R,4S)-3-(4-oxo-3-((4-((S or R)-2,2,2-trifluoro-1-hydroxy-1-(pyridin-2-yl)ethyl)phenyl)amino)-4,5-dihydro-1H-pyrazolo[4,3-c]pyridin-1-yl)tetrahydro-2H-pyran-4-carbonitrile]
15 | 0.28 | 1.83 | – | Cc1ccc(Nc2nn([C@H]3COCC[C@@H]3C#N)c3cc[nH]c(=O)c23)cc1C [Example 1-68, (3R,4S)-3-{3-[(3,4-dimethylphenyl)amino]-4-oxo-4,5-dihydro-1H-pyrazolo[4,3-c]pyridin-1-yl}tetrahydro-2H-pyran-4-carbonitrile]
16 | 0.09 | 0.26 | – | CCC(C)(C)S(=O)(=O)c1ccc(Nc2nn([C@H]3COCC[C@@H]3C#N)c3cc[nH]c(=O)c23)cc1 [Example 1-65, (3R,4S)-3-[3-({4-[(1,1-dimethylpropyl)sulfonyl]phenyl}amino)-4-oxo-4,5-dihydro-1H-pyrazolo[4,3-c]pyridin-1-yl]tetrahydro-2H-pyran-4-carbonitrile]
17 | 0.87 | – | 2.56 | CC(C)(C)CNC(c1ccc(Nc2nn([C@H]3COCC[C@@H]3C#N)c3cc[nH]c(=O)c23)cc1)C(F)(F)F (single isomer, unassigned) [Example 1-82, (3R,4S)-3-{3-[(4-{[1S or 1R)-1-[(2,2-dimethylpropyl)amino]-2,2,2-trifluoroethyl}phenyl)amino]-4-oxo-4,5-dihydro-1H-pyrazolo[4,3-c]pyridin-1-yl} tetrahydro-2H-pyran-4-carbonitrile]
18 | 0.16 | – | 0.78 | CC(C)(C)OC(=O)CNC(c1ccc(Nc2nn([C@H]3COCC[C@@H]3C#N)c3cc[nH]c(=O)c23)cc1)C(F)(F)F (single isomer, unassigned) [Example 1-40, tert-butyl N-{[(1R or 1S)-1-[4-({1-[(3R,4S)-4-cyanotetrahydro-2H-pyran-3-yl]-4-oxo-4,5-dihydro-1H-pyrazolo[4,3-c]pyridin-3-yl}amino)phenyl]-2,2,2-trifluoroethyl}glycinate]
19 | 0.12 | 0.16 | – | Cc1cc(Nc2nn([C@H]3COCC[C@@H]3C#N)c3cc[nH]c(=O)c23)ccc1C(=O)N1CCC(F)(F)CC1 [Example 1-35, (3R,4S)-3-(3-((4-(4,4-difluoropiperidine-1-carbonyl)-3-methylphenyl)amino)-4-oxo-4,5-dihydro-1H-pyrazolo[4,3-c]pyridin-1-yl)tetrahydro-2H-pyran-4-carbonitrile]
20 | 0.07 | – | 0.13 | CN(C)C(c1ccc(Nc2nn([C@H]3COCC[C@@H]3C#N)c3cc[nH]c(=O)c23)cc1)C(F)(F)F (single isomer, unassigned) [Example 1-58, (3R,4S)-3-[3-({4-[(1R or 1S)-1-(dimethylamino)-2,2,2-trifluoroethyl]phenyl}amino)-4-oxo-4,5-dihydro-1H-pyrazolo[4,3-c]pyridin-1-yl]tetrahydro-2H-pyran-4-carbonitrile]
21 | 0.18 | – | 0.52 | CC1CN(S(=O)(=O)c2ccc(Nc3nn([C@H]4COCC[C@@H]4C#N)c4cc[nH]c(=O)c34)cc2)CCO1 (single isomer, unassigned) [Example 1-74, (3R,4S)-3-{3-[(4-{[(2S or 2R)-2-methylmorpholin-4-yl]sulfonyl}phenyl)amino]-4-oxo-4,5-dihydro-1H-pyrazolo[4,3-c]pyridin-1-yl}tetrahydro-2H-pyran-4-carbonitrile]
22 | 0.12 | 0.27 | – | CC(C)N1Cc2ccc(Nc3nn([C@H]4COCC[C@@H]4C#N)c4cc[nH]c(=O)c34)cc2C1 [Example 1-15, (3R,4S)-3-(3-{[2-(1-methylethyl)-2,3-dihydro-1H-isoindol-5-yl]amino}-4-oxo-4,5-dihydro-1H-pyrazolo[4,3-c]pyridin-1-yl)tetrahydro-2H-pyran-4-carbonitrile]
